Biological target: T1, mouse TLR9 (Mus musculus, UniProt Q9EQU3)
T1 construct: Balb/c mice (Charles River); host or cells: Balb/c mice, in vivo
T1 sequence (Q9EQU3 26-1032): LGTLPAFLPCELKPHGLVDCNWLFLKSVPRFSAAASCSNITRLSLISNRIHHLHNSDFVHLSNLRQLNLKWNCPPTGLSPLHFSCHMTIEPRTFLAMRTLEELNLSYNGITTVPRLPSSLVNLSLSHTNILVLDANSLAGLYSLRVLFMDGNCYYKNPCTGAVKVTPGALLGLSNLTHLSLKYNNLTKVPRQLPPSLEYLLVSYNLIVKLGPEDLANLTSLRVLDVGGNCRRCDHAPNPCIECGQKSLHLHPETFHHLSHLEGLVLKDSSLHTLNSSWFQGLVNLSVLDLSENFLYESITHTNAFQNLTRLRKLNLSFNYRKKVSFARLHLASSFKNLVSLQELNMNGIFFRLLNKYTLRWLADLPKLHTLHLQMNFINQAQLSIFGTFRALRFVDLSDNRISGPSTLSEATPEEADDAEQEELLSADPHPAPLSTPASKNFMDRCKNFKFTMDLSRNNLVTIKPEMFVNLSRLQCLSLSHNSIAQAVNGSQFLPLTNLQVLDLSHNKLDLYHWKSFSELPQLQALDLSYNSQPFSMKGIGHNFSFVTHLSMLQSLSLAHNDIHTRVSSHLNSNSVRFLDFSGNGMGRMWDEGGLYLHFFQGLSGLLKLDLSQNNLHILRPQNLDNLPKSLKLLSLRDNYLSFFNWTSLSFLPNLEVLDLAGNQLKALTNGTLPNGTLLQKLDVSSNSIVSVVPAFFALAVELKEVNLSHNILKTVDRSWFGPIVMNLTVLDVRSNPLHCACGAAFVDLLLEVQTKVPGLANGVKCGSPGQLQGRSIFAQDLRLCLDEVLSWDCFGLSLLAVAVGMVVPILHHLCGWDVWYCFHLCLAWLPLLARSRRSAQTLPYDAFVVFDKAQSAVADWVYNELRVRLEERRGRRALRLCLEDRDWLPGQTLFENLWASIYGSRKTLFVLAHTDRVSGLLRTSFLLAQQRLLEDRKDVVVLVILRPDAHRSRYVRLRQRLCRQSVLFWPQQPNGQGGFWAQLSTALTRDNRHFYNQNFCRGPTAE
Test: Inhibition of mouse TLR9 in mouse acute challenge model over time (serum IL-12)
Format: in vivo
Conditions: 5 mg/Kg intra-peritoneal, serum IL-12 two, four and twenty-four hours after agonist
Description: Example B4-a—Inhibition of Mouse TLR9 in Mouse Acute Challenge Model Over Time
When administered a CpG-containing DNA oligonucleotide, mice respond in an acute manner with release of cytokines into the peripheral blood within 6 hours. The addition of an inhibitor against TLR9 will attenuate the response to the DNA oligonucleotide agonist, which can be measured through a reduction in serum cytokines.
Balb/c mice (Charles River). TLR9 agonist 1018 ISS, CpG-containing DNA oligonucleotide. Mouse interleukin (IL)-12p40 ELISA kit (BD Pharmingen Cat. No. 551219 and 554476).
Mice were injected by the intra-peritoneal dosing route with test compound at 5 mg/kg. Following injection of test compound, mice were injected with a TLR9 agonist (a CpG-containing DNA oligonucleotide) by the intra-peritoneal route to a final dose of approximately 2.5 mg/kg. Two, four and twenty-four hours following administration of the DNA oligonucleotide, blood was collected from mice and processed to serum. The serum was tested for the presence of IL-12 using an ELISA kit. The amount of IL-12 produced is a reflection of the amount of TLR9-dependent receptor activity.

Cc1ccc(-n2nc3c(N4CCC(C(=O)NCCCN(C)C)CC4)nnc(C)c3c2C)cc1 [Compound No. 5, 1-(3,4-dimethyl-2-(p-tolyl)-2H-pyrazolo[3,4-d]pyridazin-7-yl)-N-(3-(dimethylamino)propyl)piperidine-4-carboxamide]
inhibition of TLR9 activity in mice over time (FIG. 2): inhibition of TLR9 activity
